Measured values taken from patent publication US9832992B1, “Microbicidal composition” (Dow Global Technologies LLC, priority 2013, dated 2017).
Read-outs that look alike come from different tables or passages of the source.

What was measured:
Assay type in all cases: cell-based
[1] = tested on: Candida albicans ATCC#10203; assay: MIC / synergy index test in 96 well microtiter plates, yeast
Experimental: (§1) Surfactants and biocides were evaluated for synergy by determining the synergy index (S.I.) of the combination. Synergy index was calculated based on minimum inhibitory concentrations (MIC) of two antimicrobial compounds (A and B) alone and in combinations. The tests organisms were Gram negative bacteria (Pseudomonas aeruginosa ATCC #15442), Gram positive bacteria (Staphylococcus aureus ATCC #6538), yeast (Candida albicans ATCC#10203) and mold (Aspergillus niger ATCC#16404). Contact time for the bacteria was 24 and 48 hours, yeast was 48 and 72 hrs, and 3 and 7 days for mold. The test was carried out in 96 well microtiter plates.
(§2) SI is calculated as follows: Ca/CA+Cb/CB=Synergy Index (“SI”)
(§3) Wherein: • CA=concentration of compound A in ppm, acting alone, which produced an end point (MIC of Compound A). • Ca=concentration of compound A in ppm, in the mixture, which produced an end point. • CB=concentration of compound B in ppm, acting alone, which produced an end point (MIC of Compound B). • Cb=concentration of compound B in ppm, in the mixture, which produced an end point. When the sum of Ca/CA and Cb/CB is greater than one, antagonism is indicated.

[2] = tested on: Pseudomonas aeruginosa ATCC #15442; assay: MIC / synergy index test in 96 well microtiter plates, Gram negative bacteria
Experimental: as §1, §2, §3

[3] = tested on: Staphylococcus aureus ATCC #6538; assay: MIC / synergy index test in 96 well microtiter plates, Gram positive bacteria
Experimental: as §1, §2, §3

[4] = tested on: Aspergillus niger ATCC#16404; assay: MIC / synergy index test in 96 well microtiter plates, mold
Experimental: as §1, §2, §3

SMILES	CB (MIC of compound B alone) ([1]; B: BNPD; table with Surf. E; 48 hrs; Media: PDB; Inoculum size: 1.808E+06 CFU/ml) [ppm]	MIC ([1]; Candida albicans, ATCC10203, 48 h; read-out: CB (MIC of compound B alone)) [µg/mL]	CB (MIC of compound B alone) ([2]; B: BNPD; table with Surf. D; 24 hrs; Media: 1/10 TSB; Inoculum size: 1.16E+08) [ppm]	CB (MIC of compound B alone) ([2]; B: BNPD; table with Surf. E; 24 hrs; Media: 1/10 TSB; Inoculum size: 5.727E+07 CFU/ml) [ppm]	MIC ([2]; Pseudomonas aeruginosa, ATCC15442, 24 h; read-out: CB (MIC of compound B alone)) [µg/mL]	CB (MIC of compound B alone) ([3]; B: BNPD; table with Surf. E; 24 hrs; Media: 1/10 TSB; Inoculum size: 1.808E+06 CFU/ml) [ppm]	MIC ([3]; Staphylococcus aureus, ATCC6538, 24 h; read-out: CB (MIC of compound B alone)) [µg/mL]	MIC ([4]; Aspergillus niger, ATCC16404; read-out: CB (MIC of compound B alone)) [µg/mL]	CB (MIC of compound B alone) ([1]; B: DAZOMET; table with Surf. D; 48 hrs; Media: PDB; Inoculum size: 5.72E+05) [ppm]	MIC ([1]; Candida albicans, ATCC10203, 48 h, read-out: CB (MIC of compound B alone)) [µg/mL]	MIC ([2]; Pseudomonas aeruginosa, ATCC15442, 24 h, read-out: CB (MIC of compound B alone)) [µg/mL]	CB: MIC of B alone ([3]; B: DAZOMET alone; 24 hrs; Media 1/10 TSB; inoculum 5.72E+05) [PPM AI]	MIC ([3]; Staphylococcus aureus, ATCC6538, 24 h, read-out: CB (MIC of compound B alone)) [µg/mL]	CB: MIC of B (DAZOMET) alone ([4]; A. niger ATCC #16404; 3rd day; Media: PDB; Inoculum size: 1.156E+06; table with A: Surf. E) [PPM AI]	CB: MIC of B (DAZOMET) alone ([4]; A. niger ATCC #16404; 3rd day; Media: PDB; Inoculum size: 1.56E+06; table with A: Surf. D) [PPM AI]	MIC ([4]; Aspergillus niger, ATCC16404, read-out: CB (MIC of compound B alone)) [µg/mL]
O=[N+]([O-])C(Br)(CO)CO [BNPD, 2-bromo-2-nitropropane-1,3-diol]	1000	1000	10	10	10	20	20	1000	–	–	–	–	–	–	–	–
CN1CSC(=S)N(C)C1 [DAZOMET, tetrahydro-3,5-dimethyl-2H-1,3,5-thiadiazine-2-thione]	–	–	–	–	–	–	–	–	50	50	80	200	200	30	40	60
